# Data as given in PubChem BioAssay (NCI).
#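 Each compound was tested at five concentrations against cells in 96-well plates for 48 hours. TGI: concentration producing complete growth inhibition.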
# Columns and labels:
# Test in all cases: NCI anticancer screen, dose series, 48 h
# M14 melanoma = test system: M14 melanoma
# EKVX NSCLC = test system: EKVX NSCLC
# HT29 colon = test system: HT29 colon
# DLD-1 colon = test system: DLD-1 colon
# SNB-75 CNS = test system: SNB-75 CNS
# LOX IMVI melanoma = test system: LOX IMVI melanoma
# COLO 205 colon = test system: COLO 205 colon
# HOP-18 NSCLC = test system: HOP-18 NSCLC
# OVCAR-4 ovarian = test system: OVCAR-4 ovarian
# IGROV1 ovarian = test system: IGROV1 ovarian
# CAKI-1 renal = test system: CAKI-1 renal
# NCI-H522 lung = test system: NCI-H522 lung
# SNB-19 CNS = test system: SNB-19 CNS
# SF-268 CNS = test system: SF-268 CNS
# HL-60(TB) leukemia = test system: HL-60(TB) leukemia
# SN12C renal = test system: SN12C renal
# OVCAR-8 ovarian = test system: OVCAR-8 ovarian
# HOP-92 NSCLC = test system: HOP-92 NSCLC
# SW-620 colon = test system: SW-620 colon
# DMS 273 small cell lung = test system: DMS 273 small cell lung
# HCT-116 colon = test system: HCT-116 colon
# SF-539 CNS = test system: SF-539 CNS
# XF 498 CNS = test system: XF 498 CNS
# ACHN renal = test system: ACHN renal
# LXFL 529 NSCLC = test system: LXFL 529 NSCLC
# NCI-H460 lung = test system: NCI-H460 lung
# SNB-78 CNS = test system: SNB-78 CNS
# RPMI-8226 leukemia = test system: RPMI-8226 leukemia
# A498 renal = test system: A498 renal
# KM20L2 colon = test system: KM20L2 colon
# SK-MEL-5 melanoma = test system: SK-MEL-5 melanoma
# UACC-62 melanoma = test system: UACC-62 melanoma
# SF-295 CNS = test system: SF-295 CNS
# CCRF-CEM leukemia = test system: CCRF-CEM leukemia
# SK-OV-3 ovarian = test system: SK-OV-3 ovarian
# TK-10 renal = test system: TK-10 renal
# OVCAR-3 ovarian = test system: OVCAR-3 ovarian
# KM12 colon = test system: KM12 colon
# RXF 393 renal = test system: RXF 393 renal
# UO-31 renal = test system: UO-31 renal
# DMS 114 small cell lung = test system: DMS 114 small cell lung
# OVCAR-5 ovarian = test system: OVCAR-5 ovarian
# SK-MEL-28 melanoma = test system: SK-MEL-28 melanoma
# K-562 leukemia = test system: K-562 leukemia
# U251 CNS = test system: U251 CNS
# UACC-257 melanoma = test system: UACC-257 melanoma
# HCT-15 colon = test system: HCT-15 colon
# MOLT-4 leukemia = test system: MOLT-4 leukemia
# NCI-H226 lung = test system: NCI-H226 lung
# NCI-H23 lung = test system: NCI-H23 lung
# A549 NSCLC = test system: A549 NSCLC
# DU-145 prostate = test system: DU-145 prostate
# MDA-MB-435 = test system: MDA-MB-435
# SR leukemia = test system: SR leukemia
# SK-MEL-2 melanoma = test system: SK-MEL-2 melanoma
# MCF7 breast = test system: MCF7 breast
# MDA-N = test system: MDA-N
# NCI/ADR-RES ovarian = test system: NCI/ADR-RES ovarian
# MDA-MB-231 breast = test system: MDA-MB-231 breast
# PC-3 prostate = test system: PC-3 prostate
# HOP-62 NSCLC = test system: HOP-62 NSCLC
# BT-549 breast = test system: BT-549 breast
# T-47D breast = test system: T-47D breast
# 786-0 renal = test system: 786-0 renal
# HCC-2998 colon = test system: HCC-2998 colon
# MALME-3M melanoma = test system: MALME-3M melanoma
# HS 578T breast = test system: HS 578T breast
# M19-MEL melanoma = test system: M19-MEL melanoma
smiles,measurement,setting,value
N/C(=C\c1ccc(/C=C(\NC(=O)c2ccccc2)c2nc3c([nH]2)C(=O)c2ccccc2C3=O)cc1)c1nc2c([nH]1)C(=O)c1ccccc1C2=O,TGI,M14 melanoma,30.4 µM
same,TGI,EKVX NSCLC,55.7 µM
same,TGI,HT29 colon,32.4 µM
same,TGI,DLD-1 colon,33 µM
same,TGI,SNB-75 CNS,18.8 µM
same,TGI,LOX IMVI melanoma,47.1 µM
same,TGI,COLO 205 colon,29.9 µM
same,TGI,HOP-18 NSCLC,28.4 µM
same,TGI,OVCAR-4 ovarian,34 µM
same,TGI,IGROV1 ovarian,40.3 µM
same,TGI,CAKI-1 renal,60.7 µM
same,TGI,NCI-H522 lung,29.8 µM
same,TGI,SNB-19 CNS,28.4 µM
same,TGI,SF-268 CNS,30.6 µM
same,TGI,HL-60(TB) leukemia,38.3 µM
same,TGI,SN12C renal,32.8 µM
same,TGI,OVCAR-8 ovarian,61.8 µM
same,TGI,HOP-92 NSCLC,22.2 µM
same,TGI,SW-620 colon,50.5 µM
same,TGI,DMS 273 small cell lung,42.1 µM
same,TGI,HCT-116 colon,29.5 µM
same,TGI,SF-539 CNS,30.2 µM
same,TGI,XF 498 CNS,24.3 µM
same,TGI,ACHN renal,52.6 µM
same,TGI,LXFL 529 NSCLC,24.6 µM
same,TGI,NCI-H460 lung,36.4 µM
same,TGI,SNB-78 CNS,63.1 µM
same,TGI,RPMI-8226 leukemia,26.1 µM
same,TGI,A498 renal,29.9 µM
same,TGI,KM20L2 colon,36.2 µM
same,TGI,SK-MEL-5 melanoma,31.5 µM
same,TGI,UACC-62 melanoma,27.8 µM
same,TGI,SF-295 CNS,30.9 µM
same,TGI,CCRF-CEM leukemia,57.2 µM
same,TGI,SK-OV-3 ovarian,48.8 µM
same,TGI,TK-10 renal,51.7 µM
same,TGI,OVCAR-3 ovarian,57.3 µM
same,TGI,KM12 colon,29 µM
same,TGI,RXF 393 renal,26.2 µM
same,TGI,UO-31 renal,17.7 µM
same,TGI,DMS 114 small cell lung,22.9 µM
same,TGI,OVCAR-5 ovarian,40.5 µM
same,TGI,SK-MEL-28 melanoma,31.3 µM
same,TGI,K-562 leukemia,43.5 µM
same,TGI,U251 CNS,33.6 µM
same,TGI,UACC-257 melanoma,36.2 µM
same,TGI,HCT-15 colon,37.7 µM
same,TGI,MOLT-4 leukemia,29.3 µM
same,TGI,NCI-H226 lung,27 µM
same,TGI,NCI-H23 lung,32.8 µM
same,TGI,A549 NSCLC,36.5 µM
Cc1cc(-c2nc3ccc(F)cc3s2)ccc1NC(=O)C(N)CCCCN (configuration not stated),TGI,M14 melanoma,6.57 µM
same,TGI,DU-145 prostate,26.2 µM
same,TGI,MDA-MB-435,5.34 µM
same,TGI,EKVX NSCLC,26.5 µM
same,TGI,HT29 colon,13.1 µM
same,TGI,SNB-75 CNS,12.6 µM
same,TGI,LOX IMVI melanoma,4.73 µM
same,TGI,SR leukemia,8.18 µM
same,TGI,COLO 205 colon,14.8 µM
same,TGI,OVCAR-4 ovarian,24.6 µM
same,TGI,IGROV1 ovarian,17.6 µM
same,TGI,CAKI-1 renal,24.9 µM
same,TGI,NCI-H522 lung,17.3 µM
same,TGI,SNB-19 CNS,25 µM
same,TGI,SF-268 CNS,19 µM
same,TGI,HL-60(TB) leukemia,9.78 µM
same,TGI,SN12C renal,21.3 µM
same,TGI,OVCAR-8 ovarian,22.3 µM
same,TGI,SK-MEL-2 melanoma,23.1 µM
same,TGI,HOP-92 NSCLC,27.7 µM
same,TGI,SW-620 colon,7.93 µM
same,TGI,HCT-116 colon,10.3 µM
same,TGI,SF-539 CNS,7.75 µM
same,TGI,MCF7 breast,4.46 µM
same,TGI,MDA-N,5 µM
same,TGI,ACHN renal,25.6 µM
same,TGI,NCI-H460 lung,5.64 µM
same,TGI,RPMI-8226 leukemia,12.5 µM
same,TGI,A498 renal,24 µM
same,TGI,NCI/ADR-RES ovarian,34.1 µM
same,TGI,MDA-MB-231 breast,23.1 µM
same,TGI,SK-MEL-5 melanoma,20.4 µM
same,TGI,PC-3 prostate,22.7 µM
same,TGI,UACC-62 melanoma,24.6 µM
same,TGI,HOP-62 NSCLC,12.7 µM
same,TGI,SF-295 CNS,19.3 µM
same,TGI,CCRF-CEM leukemia,7.68 µM
same,TGI,BT-549 breast,28.3 µM
same,TGI,SK-OV-3 ovarian,27.1 µM
same,TGI,T-47D breast,16.1 µM
same,TGI,TK-10 renal,14.5 µM
same,TGI,OVCAR-3 ovarian,22.4 µM
same,TGI,KM12 colon,4.87 µM
same,TGI,786-0 renal,8.76 µM
same,TGI,RXF 393 renal,25.3 µM
same,TGI,UO-31 renal,16.1 µM
same,TGI,HCC-2998 colon,21.4 µM
same,TGI,MALME-3M melanoma,34.1 µM
same,TGI,OVCAR-5 ovarian,22.5 µM
same,TGI,SK-MEL-28 melanoma,34.8 µM
same,TGI,K-562 leukemia,8.2 µM
same,TGI,U251 CNS,5.01 µM
same,TGI,HS 578T breast,27.1 µM
same,TGI,UACC-257 melanoma,28.1 µM
same,TGI,HCT-15 colon,23.6 µM
same,TGI,MOLT-4 leukemia,7.94 µM
same,TGI,NCI-H226 lung,24 µM
same,TGI,NCI-H23 lung,18.5 µM
same,TGI,A549 NSCLC,5.54 µM
N=C1c2ccccc2C(=O)c2c(NCCNCCO)ccc(O)c21,TGI,M14 melanoma,24.8 µM
same,TGI,EKVX NSCLC,46.9 µM
same,TGI,HT29 colon,> 100 µM
same,TGI,DLD-1 colon,22.3 µM
same,TGI,SNB-75 CNS,49.3 µM
same,TGI,LOX IMVI melanoma,15.6 µM
same,TGI,SR leukemia,5.32 µM
same,TGI,M19-MEL melanoma,17.3 µM
same,TGI,COLO 205 colon,16.9 µM
same,TGI,HOP-18 NSCLC,54.8 µM
same,TGI,OVCAR-4 ovarian,83.3 µM
same,TGI,IGROV1 ovarian,46.8 µM
same,TGI,CAKI-1 renal,26.5 µM
same,TGI,NCI-H522 lung,13.3 µM
same,TGI,SNB-19 CNS,84.8 µM
same,TGI,SF-268 CNS,14.2 µM
same,TGI,HL-60(TB) leukemia,27.6 µM
same,TGI,SN12C renal,31.7 µM
same,TGI,OVCAR-8 ovarian,> 76.2 µM
same,TGI,SK-MEL-2 melanoma,33.5 µM
same,TGI,HOP-92 NSCLC,> 71.2 µM
same,TGI,SW-620 colon,15.8 µM
same,TGI,DMS 273 small cell lung,18.9 µM
same,TGI,HCT-116 colon,15 µM
same,TGI,SF-539 CNS,16.3 µM
same,TGI,ACHN renal,57 µM
same,TGI,LXFL 529 NSCLC,27.8 µM
same,TGI,NCI-H460 lung,15.1 µM
same,TGI,SNB-78 CNS,> 60 µM
same,TGI,RPMI-8226 leukemia,24.6 µM
same,TGI,A498 renal,33.8 µM
same,TGI,KM20L2 colon,22 µM
same,TGI,SK-MEL-5 melanoma,19.3 µM
same,TGI,UACC-62 melanoma,18.9 µM
same,TGI,HOP-62 NSCLC,22.5 µM
same,TGI,SF-295 CNS,> 40.5 µM
same,TGI,CCRF-CEM leukemia,53.9 µM
same,TGI,SK-OV-3 ovarian,50.2 µM
same,TGI,TK-10 renal,> 62.3 µM
same,TGI,OVCAR-3 ovarian,52.7 µM
same,TGI,KM12 colon,33.1 µM
same,TGI,786-0 renal,> 38.7 µM
same,TGI,RXF 393 renal,18 µM
same,TGI,UO-31 renal,32.7 µM
same,TGI,HCC-2998 colon,21.4 µM
same,TGI,DMS 114 small cell lung,15.1 µM
same,TGI,MALME-3M melanoma,35.8 µM
same,TGI,OVCAR-5 ovarian,84.7 µM
same,TGI,SK-MEL-28 melanoma,23.2 µM
same,TGI,K-562 leukemia,> 28.8 µM
same,TGI,U251 CNS,18.9 µM
same,TGI,UACC-257 melanoma,> 51.6 µM
same,TGI,HCT-15 colon,> 63 µM
same,TGI,MOLT-4 leukemia,10.8 µM
same,TGI,NCI-H226 lung,44.7 µM
same,TGI,NCI-H23 lung,25.7 µM
same,TGI,A549 NSCLC,22.6 µM
